Where a name gives a salt, the structure may show the parent alone.
What was measured:
SW 480 = assay: Growth inhibition test (MTT) for cytotoxic properties; format: cell-based, human; details: Table 1a, glycoconjugates of batracyline
Protocol: (§1) Growth Inhibition Test for Determination of the Cytotoxic Properties of Glycoconjugates of Batracyline and of Quinolone-a
(§2) The human colon cell lines SW 480 and HT 29 (ATCC no. CCL 228 and HBT-38) and the mouse melanoma cell line B 16 F 10 were cultured in Roux dishes in RPMI 1640 medium with addition of 10% FCS. The cultures were then trypsinized and taken up in RPMI plus 10% FCS to a cell count of 50,000 cells/ml. 100 μl of cell suspension/well were introduced into a 96 microwell plate and incubated for 1 day at 37° C. in a CO2 incubating cabinet. A further 100 μl of RPMI medium and 1 μl of dimethyl sulphoxide with the test substances were then added. The growth was checked after day 3 and day 6. 40 μl of MTT solution (3-(4,5-dimethylthiazol-2-yl)-2,5-diphenyltetrazoline bromide) with an initial concentration of 5 mg/ml of H2 O were added to each microwave. The plate was incubated for 5 hours in a CO2 incubating cabinet at 37° C. The medium was then sucked off and 100 μl of i-propanol/well were added. After shaking for 30 minutes with 100 μl of H2 O, the extinction was measured at 540 nm with a Titertek Multiskan MCC/340 (Flow).
(§3) The cytotoxic action of the glycoconjugates of batracyline described is shown in Table 1a as the IC50 value in each case for the SW 480 and HT 29 cell lines.

HT 29 = assay: as above; format: cell-based, human; details: Table 1a, glycoconjugates of batracyline
Protocol: as §1, §2, §3

| Compound | IC50 (SW 480) [µM] | IC50 (HT 29) [µM] |
| --- | --- | --- |
| O=C(O)CO[C@H]1[C@@H](O)[C@@H](CO)O[C@@H](Oc2ccc(NC(=S)NCCCC[C@H](NC(=S)Nc3ccc(O[C@@H]4O[C@H](CO)[C@H](O)[C@H](OCC(=O)O)[C@H]4O)cc3)C(=O)Nc3ccc4nc5n(c(=O)c4c3)Cc3ccccc3-5)cc2)[C@@H]1O [Example 6.28, N-{N^α,N^ε -Bis-[O-(3-O-carboxymethyl-β-D-galactopyranosyl)-4-hydroxy-phenylamino-thiocarbonyl]-lysyl}-batracyline, di-sodium salt] | 40 | 25 |
| NC(=O)COC1C(O)C(CO)OC(Oc2ccc(NC(=S)NCCCCC(NC(=S)Nc3ccc(OC4OC(CO)C(O)C(OCC(N)=O)C4O)cc3)C(=O)Nc3ccc4nc5n(c(=O)c4c3)Cc3ccccc3-5)cc2)C1O [Example 6.29, N-{N^α,N^ε -Bis-[O-(3-O-carbamoylmethyl-β-D-galactopyranosyl)-4-hydroxy-phenylamino-thiocarbonyl]-lysyl}-batracyline] | 95 | 130 |
| COC1C(O)C(C)OC(Oc2ccc(NC(=S)Nc3ccc4c(c3)Cn3c-4nc4ccccc4c3=O)cc2)C1O [Example 7.7, N-[O-(3-O-Methyl-β-L-fucosyl)-4-hydroxy-phenylamino-thiocarbonyl]-batr acyline] | 100 | > 250 |
| N-{N-(O-(3-O-Methyl-β-L-fucosyl)-4-hydroxy-phenylamino-thiocarbonyl]-D -alanyl}-batracyline [Example 7.1] | 40 | 40 |
| N-{N-[O-(3,4-Di-O-methyl-β-D-galactopyranosyl)-4-hydroxy-phenylamino-t hio-carbonyl]-D-alanyl}-batracyline [Example 7.8] | 40 | 30 |
| N-{N-[O-(3-O-Carbamoylmethyl-β-D-galactopyranosyl)-4-hydroxy-phenylami no-thiocarbonyl]-D-alanyl}-batracyline [Example 7.12] | 10 | 10 |
| N-{N-[O-(3-O-Carboxymethyl-β-D-galactopyranosyl)-4-hydroxy-phenylamino -thiocarbonyl]-D-alanyl}-batracyline, sodium salt [Example 7.11] | 30 | 25 |
| N-{N-[O-(3-O-Carboxymethyl-β-L-fucosyl)-4-hydroxy-phenylamino-thiocarb onyl]-D-alanyl}-batracyline, sodium salt [Example 7.2] | 40 | 30 |
| N-{N-[O-(α-D-Mannopyranosyl)-4-hydroxy-phenylamino-thiocarbonyl]-lysy l-D-alanyl}-batracyline [Example 4.11] | 15 | 15 |
| N-{N^α -[-(3-O-Carbamoylmethyl-β-D-galactopyranosyl)-4-hydroxy-phenylamino-t hiocarbonyl]-lysyl-D-alanyl}-batracyline [Example 4.10] | 30 | 30 |
| N-{N^α -[-(3-O-Carboxymethyl-β-D-galactopyranosyl)-4-hydroxy-phenylaminothio carbonyl]-N^ε -[O-(3,4-di-O-methyl-β-D-galactopyranosyl)-4-hydroxy-phenylamino-thio carbonyl]-lysyl-D-alanyl}-batracyline, sodium salt [Example 5.13] | 20 | 40 |
| N-{N^α -[O-(3,4-Di-O-methyl-β-D-galactopyranosyl)-4-hydroxy-phenylamino-thio carbonyl]-N^ε -[O-(3-O-(piperidyl-N)-carbonylmethyl-β-D-galactopyranosyl)-4-hydroxy -phenylamino-thiocarbonyl]-lysyl-D-alanyl}-batracyline [Example 5.15] | > 250 | 70 |
| N-{N^α -[O-(3,4-Di-O-methyl-β-D-galactopyranosyl)-4-hydroxy-phenylamino-thio carbonyl]-N^ε -[O-(3-O-carbamoylmethyl-β-D-galactopyranosyl)-4-hydroxy-phenylamino- thiocarbonyl]-lysyl-D-alanyl}-batracyline [Example 5.21] | 60 | 80 |
| N-{N^α -[O-(3-O-Carbamoylmethyl-β-D-galactopyranosyl)-4-hydroxy-phenylamino- thiocarbonyl]-N^ε -[O-(3-O-carboxymethyl-β-D-galactopyranosyl)-4-hydroxy-phenylamino-th iocarbonyl]-lysyl-D-alanyl}-batracyline, sodium salt [Example 5.20] | 50 | 30 |
| N-{N^α -[O-(3-O-Carboxymethyl-β-D-galactopyranosyl)-4-hydroxy-phenylamino-th iocarbonyl]-N^ε -[O-(3,4-di-O-methyl-β-D-galactopyranosyl)-4-hydroxy-phenylamino-thio carbonyl]-lysyl-D-alanyl}-batracyline [Example 5.14] | 20 | 30 |
| N-{N^α -[O-(3-O-Carboxymethyl-β-D-galactopyranosyl)-4-hydroxy-phenylamino-th iocarbonyl]-N^ε -[O-(3-O-carbamoylmethyl-β-D-galactopyranosyl)-4-hydroxy-phenylamino- thiocarbonyl]-lysyl-D-alanyl}-batracyline, sodium salt [Example 5.23] | 25 | 35 |
| N-{N^α -[O-(3-O-Carboxymethyl-β-D-galactopyranosyl)-4-hydroxy-phenylamino-th iocarbonyl]-lysyl-D-alanyl}-batracyline, sodium salt [Example 4.9] | 20 | 30 |
| N-{N^α -[O-(3-O-Methoxycarbonylmethyl-[-D-galactopyranosyl)-4-hydroxy-phenylamino -thiocarbonyl]-lysyl-D-alanyl}-batracyline [Example 4.8] | 50 | 40 |
| N-{N^α -[O-(3-O-Methoxycarbonylmethyl-β-D-galactopyranosyl)-4-hydroxy-phenyl amino-thiocarbonyl]-N^ε -[O-(3-O-carbamoylmethyl-β-D-galactopyranosyl)-4-hydroxy-phenylamino- thiocarbonyl]-lysyl-D-alanyl}-batracyline [Example 5.22] | 30 | 40 |
| N-{N^α -[O-(3-O-Methoxycarbonylmethyl-β-D-galactopyranosyl)-4-hydroxy-phenyl amino-thiocarbonyl]-N^ε -[O-(3-O-carboxymethyl-β-D-galactopyranosyl)-4-hydroxy-phenylamino-th iocarbonyl]-lysyl-D-alanyl}-batracyline, sodium salt [Example 5.19] | 35 | 25 |
| N-{N^α -[O-(3-O-Methoxycarbonylmethyl-β-D-galactopyranosyl)-4-hydroxyphenyla mino-thiocarbonyl]-N^ε -[O-(3,4-di-O-methyl-β-D-galactopyranosyl)-4-hydroxy-phenylamino-thio carbonyl]-lysyl-D-alanyl}-batracyline [Example 5.12] | 20 | 20 |
| N-{N^α -[O-(3-O-Methyl-α-D-mannopyranosyl)-4-hydroxy-phenylamino-thiocarbon yl]-lysyl-D-alanyl}-batracyline [Example 4.12] | 15 | 9 |
| N-{N^α -[O-(3-O-Methyl-β-D-galactopyranosyl)-4-hydroxy-phenylamino-thiocarbo nyl]-lysyl-D-alanyl}-batracyline [Example 4.7] | 15 | 15 |

— patent US6271342A, “Sugar-modified cytostatics” (Bayer Aktiengesellschaft, priority 1995, dated 2001)
